{
  "source": "paper PMC3137686",
  "about": "(Synapse (New York, N.Y.), 2011)",
  "key": {"[1]": {"tested_on": "brain 5-HT axonal markers", "settings": "intrastriatal administration; ref Jones et al. 2005; cited from earlier work"}, "Rectal": {"test": "Rectal", "assay_type": "in vivo, rat"}, "cytochrome P450 (CYP450)": {"tested_on": "cytochrome P450 (CYP450)", "settings": "ref Broly et al. 1990; Ramamoorthy et al. 2002; Heydari et al. 2004; cited from earlier work"}, "[2]": {"tested_on": "brain serotonin (5-HT) neurons", "test": "Regional brain 5-HT and 5-HIAA concentrations one week after drug treatment", "assay_type": "in vivo, rat", "settings": "one week after single oral dose of 20 mg/kg MDMA"}, "[3]": {"tested_on": "brain serotonin (5-HT) neurons", "settings": "ref Paris and Cunningham 1992, Esteban et al. 2001, Escobedo et al. 2005; cited from earlier work"}},
  "note": "Entries after “also recorded” stand apart in the source; their conditions may differ.",
  "data": [
    {"smiles": "CNC(C)Cc1cc(O)c(O)c(SC[C@H](NC(C)=O)C(=O)O)c1", "note": "(stereo partly shown) [5-NAC-HHMA, 5-N-acetylcystein-S-yl-HHMA]", "values": [
      {"measurement": "lasting depletions of indoles in the rat brain", "setting": "[1]", "value": "produces lasting depletions of indoles"}
    ]},
    {"smiles": "COc1ccc2c(c1)[C@]13CCCC[C@@H]1[C@H](C2)N(C)CC3", "note": "[DXM, dextromethorphan]", "values": [
      {"measurement": "effect of DXM on body (core) temperature", "setting": "Rectal; DXM 30 mg/kg i.p. x3, alone or in combination with MDMA 20 mg/kg p.o.", "value": "did not significantly alter; also recorded: no significant effect"},
      {"measurement": "body temperature after combination of MDMA and DXM", "setting": "Rectal; MDMA 20 mg/kg p.o. + DXM 30 mg/kg i.p. x3", "value": "longer lasting decrease in temperature, which was followed by an increase in core temperature"},
      {"measurement": "peak temperatures, MDMA/DXM group vs MDMA/Saline group", "setting": "Rectal; MDMA 20 mg/kg p.o. + DXM 30 mg/kg i.p. x3, difference did not achieve statistical significance", "value": "lower"},
      {"measurement": "inhibition of CYP450-mediated metabolism of MDMA to HHMA", "setting": "cytochrome P450 (CYP450)", "value": "potent competitive inhibitor"}
    ]},
    {"smiles": "CNC(C)Cc1ccc2c(c1)OCO2", "note": "(stereo not shown) [MDMA, 3,4-Methylenedioxymethamphetamine]", "values": [
      {"measurement": "5-HT and 5-HIAA concentrations across brain regions after MDMA", "setting": "[2]", "value": "lasting effects"},
      {"measurement": "toxic effects after central administration", "setting": "[3]", "value": "does not produce toxic effects"}
    ]}
  ]
}
